{"source": "patent US10556865B2", "about": "“Synergistic herbicidal composition containing certain pyridine or pyrimidine carboxylic acids and certain cereal and rice herbicides” (Dow AgroSciences, LLC, priority 2007, dated 2020)", "assay_type_in_all_cases": "in vivo", "key": {"[1]": {"test_system": "chickweed (Stellaria media L; STEME)", "assay": "Postemergence herbicidal activity of mixtures in cereal crops (greenhouse, visual injury)", "settings": "for pest or weed control at 17.5 g/ha / pest or weed control at 35 g/ha / pest or weed control at 70 g/ha / pest or weed control at 8.75 g/ha / pest or weed control at 140 g/ha: Stellaria media, post-emergence, read-out: STEME Ob", "method_in_brief": "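Plants grown in greenhouse (~14 h photoperiod, ~18 °C day/17 °C night) to 2nd–3rd true leaf, then sprayed with Compound A or B (methyl ester, TEA or K salt) and a second cereal herbicide alone or combined at 187 L/ha; solvent blank controls. Visual injury (0–100%) scored after 20–22 days; Colby expected values calculated.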"}, "[2]": {"test_system": "Marsilea crenata PRESL (MASCR)", "assay": "Herbicidal mixtures for weed control in transplanted paddy rice (in-water application, visual % injury)", "method_in_brief": "(§1)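 Mixtures injected into paddy water of flooded pots (transplanted rice, weeds at 2nd–3rd true leaf stage, ~29/26 °C greenhouse); compounds A, C, D dosed as acid equivalent, partners as active ingredient, in acetone/crop oil concentrate carrier. Injury scored visually after 3 weeks versus untreated plants, 0 (none) to 100% (complete kill).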"}, "Cyperus species (CYPSS)": {"test_system": "Cyperus species (CYPSS)", "assay": "Herbicidal mixtures for weed control in transplanted paddy rice (in-water application, visual % injury)", "settings": "for % Injury CYPES Ob: CYPES = Cyperus esculentus", "method_in_brief": "as §1"}, "[3]": {"settings": "Compound A Methyl 17.5 g/ha alone"}, "[4]": {"settings": "Quinclorac 140 g/ha alone (Compound A Methyl half)"}, "[5]": {"settings": "Quinclorac 140 g/ha alone (Compound A TEA half)"}}, "note": "Several values for one entry are separate records, joined by “and”; a condition that tells them apart may be missing. Equal values may be shown once. Read-outs that look alike come from different tables or passages of the source."}
{"smiles": "COC(=O)c1nc(-c2ccc(Cl)c(OC)c2F)cc(N)c1Cl", "note": "[Compound A Methyl, 4-amino-3-chloro-6-(4-chloro-2-fluoro-3-methoxyphenyl)pyridine-2-carboxylic acid methyl ester]", "values": [{"measurement": "pest or weed control at 17.5 g/ha", "setting": "[1]; 17.5 g/ha", "value": 78, "unit": "%"}, {"measurement": "pest or weed control at 35 g/ha", "setting": "[1]; 35 g/ha", "value": 90, "unit": "%"}, {"measurement": "pest or weed control at 70 g/ha", "setting": "[1]; 70 g/ha", "value": 100, "unit": "%"}, {"measurement": "% Injury MASCR Ob", "setting": "[2]; [3]", "value": 0, "unit": "%"}, {"measurement": "% Injury MASCR Ob", "setting": "[2]; Compound A Methyl 35 g/ha alone", "value": 50, "unit": "%"}, {"measurement": "% Injury CYPES Ob", "setting": "Cyperus species (CYPSS); [3]", "value": 50, "unit": "%"}, {"measurement": "% Injury CYPES Ob", "setting": "Cyperus species (CYPSS); Compound A Methyl 35 g/ha alone (Table 112)", "value": 60, "unit": "%"}, {"measurement": "% Injury Ob", "setting": "Cyperus species (CYPSS); CYPES, 4.38 g/ha alone", "value": 0, "unit": "%"}, {"measurement": "% Injury Ob", "setting": "Cyperus species (CYPSS); CYPES, 8.75 g/ha alone", "value": 15, "unit": "%"}]}
{"smiles": "COc1c(Cl)ccc(-c2cc(N)c(Cl)c(C(=O)O)n2)c1F", "note": "[Compound A TEA, 4-amino-3-chloro-6-(4-chloro-2-fluoro-3-methoxyphenyl)pyridine-2-carboxylic acid]", "values": [{"measurement": "STEME Ob", "setting": "[1]; 70 g/ha alone", "value": 93, "unit": "%"}, {"measurement": "pest or weed control at 8.75 g/ha", "setting": "[1]; 8.75 g/ha alone", "value": 80, "unit": "%"}, {"measurement": "pest or weed control at 8.75 g/ha", "setting": "[1]; 8.75 g/ha", "value": 80, "unit": "%"}, {"measurement": "pest or weed control at 17.5 g/ha", "setting": "[1]; 17.5 g/ha alone", "value": 85, "unit": "%"}, {"measurement": "pest or weed control at 17.5 g/ha", "setting": "[1]; 17.5 g/ha", "value": 85, "unit": "%"}, {"measurement": "pest or weed control at 35 g/ha", "setting": "[1]; 35 g/ha alone", "value": 88, "unit": "%"}, {"measurement": "pest or weed control at 70 g/ha", "setting": "[1]; 70 g/ha alone", "value": 93, "unit": "%"}, {"measurement": "pest or weed control at 140 g/ha", "setting": "[1]; 140 g/ha", "value": 65, "unit": "%"}, {"measurement": "% Injury MASCR Ob", "setting": "[2]; Compound A TEA 35 g/ha alone", "value": 60, "unit": "%"}, {"measurement": "% Injury CYPES Ob", "setting": "Cyperus species (CYPSS); Compound A TEA 17.5 g/ha alone", "value": 30, "unit": "%"}, {"measurement": "% Injury CYPES Ob", "setting": "Cyperus species (CYPSS); Compound A TEA 17.5 g/ha alone (Table 112)", "value": 30, "unit": "%"}, {"measurement": "% Injury CYPES Ob", "setting": "Cyperus species (CYPSS); Compound A TEA 35 g/ha alone (Table 112)", "value": 70, "unit": "%"}, {"measurement": "% Injury Ob", "setting": "Cyperus species (CYPSS); CYPES, 35 g/ha alone", "value": "20% and 25%"}, {"measurement": "% Injury Ob", "setting": "Cyperus species (CYPSS); CYPES, 70 g/ha alone", "value": 50, "unit": "%"}, {"measurement": "% Injury Ob", "setting": "Cyperus species (CYPSS); CYPIR, 35 g/ha alone", "value": 10, "unit": "%"}, {"measurement": "% Injury Ob", "setting": "Cyperus species (CYPSS); CYPIR, 70 g/ha alone", "value": 20, "unit": "%"}]}
{"smiles": "O=C(O)c1c(Cl)ccc2cc(Cl)cnc12", "note": "[Quinclorac]", "values": [{"measurement": "pest or weed control at 140 g/ha", "setting": "[1]; 140 g/ha alone", "value": 0, "unit": "%"}, {"measurement": "% Injury MASCR Ob", "setting": "[2]; [4]", "value": 0, "unit": "%"}, {"measurement": "% Injury MASCR Ob", "setting": "[2]; [5]", "value": 0, "unit": "%"}, {"measurement": "% Injury CYPES Ob", "setting": "Cyperus species (CYPSS); [4]", "value": 0, "unit": "%"}, {"measurement": "% Injury CYPES Ob", "setting": "Cyperus species (CYPSS); [5]", "value": 0, "unit": "%"}]}
